Experiments:
Assay in all cases: Ambit KinomeScan screening
Format in all cases: binding
Conditions in all cases: CAL-130 10 μM
ERBB2 = biological target: T1, ERBB2 (Homo sapiens, UniProt P04626)
T1 construct: purchased Ambit (KinomeScan screening service)
Experimental: (§1) CAL-130 (10 μM) was evaluated for its ability to prevent tagged kinases from interacting with immobilized “bait” ligand (Karaman et al., 2008). Results are reported as “% of control binding”, where lower numbers indicate stronger interactions with the tagged kinase. Values of >35% are considered “no hits”. PI3Kδ had the lowest percentage of control binding at 0.2% followed by PI3Kγ at 3.2% (See Table 1 below). These values indicate a high probability of a potent interaction. 353 kinases were assessed in the screen (Table 2).

RET(V804M) = biological target: T2, RET(V804M) (Homo sapiens, UniProt P07949, V804M)
T2 construct: tag (kind not specified); purchased Ambit (KinomeScan screening service)
Experimental: as §1

BIKE = biological target: T3, BIKE (Homo sapiens, UniProt Q9NSY1)
T3 construct: purchased Ambit (KinomeScan screening service)
Experimental: as §1

ABL1(Q252H) = biological target: T4, ABL1(Q252H) (Homo sapiens, UniProt P00519, Q252H)
T4 construct: unspecified tag ("tagged kinases"); purchased Ambit (KinomeScan screening)
Experimental: as §1

CSNK1G3 = biological target: T5, CSNK1G3 (Homo sapiens, UniProt Q9Y6M4)
T5 construct: purchased Ambit (KinomeScan screening service)
Experimental: as §1

RPS6KA3 = biological target: T6, RPS6KA3 (Homo sapiens, UniProt P51812)
T6 construct: unspecified tag (tagged kinase); purchased Ambit (KinomeScan screening)
Experimental: as §1

EPHA7 = biological target: T7, EPHA7 (Homo sapiens, UniProt Q15375)
T7 construct: purchased Ambit (KinomeScan screening service)
Experimental: as §1

NIM1 = biological target: T8, NIM1 (Homo sapiens, UniProt Q8IY84)
T8 construct: purchased Ambit (KinomeScan screening service)
Experimental: as §1

TAO1 = biological target: T9, TAO1 (Homo sapiens, UniProt Q9UL54)
T9 construct: tag (kind not specified); purchased Ambit (KinomeScan screening service)
Experimental: as §1

SRPK3 = biological target: T10, SRPK3 (Homo sapiens, UniProt Q9UPE1)
T10 construct: purchased Ambit (KinomeScan screening service)
Experimental: as §1

RPS6KA1 = biological target: T11, RPS6KA1 (Homo sapiens, UniProt Q15418)
T11 construct: unspecified tag (tagged kinase); purchased Ambit (KinomeScan screening)
Experimental: as §1

PIK3CA = biological target: T12, PIK3CA (Homo sapiens, UniProt P42336)
T12 construct: unspecified tag; purchased Ambit (KinomeScan screening panel)
Experimental: as §1

RAF1 = biological target: T13, RAF1 (Homo sapiens, UniProt P04049)
T13 construct: tag (kind not specified); purchased Ambit (KinomeScan screening service)
Experimental: as §1

EPHA6 = biological target: T14, EPHA6 (Homo sapiens, UniProt Q9UF33)
T14 construct: purchased Ambit (KinomeScan screening service)
Experimental: as §1

ABL1(Y253F) = biological target: T15, ABL1(Y253F) (Homo sapiens, UniProt P00519, Y253F)
T15 construct: unspecified tag ("tagged kinases"); purchased Ambit (KinomeScan screening)
Experimental: as §1

CDKL2 = biological target: T16, CDKL2 (Homo sapiens, UniProt Q92772)
T16 construct: purchased Ambit (KinomeScan screening service)
Experimental: as §1

BMX = biological target: T17, BMX (Homo sapiens, UniProt P51813)
T17 construct: unspecified tag ("tagged kinases"); purchased Ambit (KinomeScan screening)
Experimental: as §1

NEK5 = biological target: T18, NEK5 (Homo sapiens, UniProt Q6P3R8)
T18 construct: unspecified tag; purchased Ambit (KinomeScan screening panel)
Experimental: as §1

PLK3 = biological target: T19, PLK3 (Homo sapiens, UniProt Q9H4B4)
T19 construct: purchased Ambit (KinomeScan screening service)
Experimental: as §1

RET(V804L) = biological target: T20, RET(V804L) (Homo sapiens, UniProt P07949, V804L)
T20 construct: tag (kind not specified); purchased Ambit (KinomeScan screening service)
Experimental: as §1

FAK = biological target: T21, FAK (Homo sapiens, UniProt Q05397)
T21 construct: unspecified tag ("tagged kinases"); purchased Ambit (KinomeScan screening service)
Experimental: as §1

SgK110 = biological target: T22, SgK110 (Homo sapiens, UniProt P0C264)
T22 construct: tag, kind not specified; purchased Ambit (KinomeScan screening service)
Experimental: as §1

WEE1 = biological target: T23, WEE1 (Homo sapiens, UniProt P30291)
T23 construct: purchased Ambit (KinomeScan screening service)
Experimental: as §1

TGFBR1 = biological target: T24, TGFBR1 (Homo sapiens, UniProt P36897)
T24 construct: unspecified tag (tagged kinase); purchased Ambit (KinomeScan screening)
Experimental: as §1

PRKX = biological target: T25, PRKX (Homo sapiens, UniProt P51817)
T25 construct: tag (kind not specified); purchased Ambit (KinomeScan screening service)
Experimental: as §1

ERK2 = biological target: T26, ERK2 (Homo sapiens, UniProt P28482)
T26 construct: unspecified tag ("tagged kinases"); purchased Ambit (KinomeScan screening service)
Experimental: as §1

NEK6 = biological target: T27, NEK6 (Homo sapiens, UniProt Q9HC98)
T27 construct: unspecified tag; purchased Ambit (KinomeScan screening panel)
Experimental: as §1

ULK3 = biological target: T28, ULK3 (Homo sapiens, UniProt Q6PHR2)
T28 construct: tag, kind not specified; purchased Ambit (KinomeScan screening service)
Experimental: as §1

BMPR1B = biological target: T29, BMPR1B (Homo sapiens, UniProt O00238)
T29 construct: purchased Ambit (KinomeScan screening service)
Experimental: as §1

MST3 = biological target: T30, MST3 (Homo sapiens, UniProt Q9Y6E0)
T30 construct: unspecified tag; purchased Ambit (KinomeScan screening panel)
Experimental: as §1

p38-α = biological target: T31, p38-α (Homo sapiens, UniProt Q16539)
T31 construct: purchased Ambit (KinomeScan screening service)
Experimental: as §1

CAMK1G = biological target: T32, CAMK1G (Homo sapiens, UniProt Q96NX5)
T32 construct: unspecified tag ("tagged kinases"); purchased Ambit (KinomeScan screening)
Experimental: as §1

LIMK2 = biological target: T33, LIMK2 (Homo sapiens, UniProt P53671)
T33 construct: unspecified tag ('tagged kinases'); purchased Ambit (KinomeScan screening service)
Experimental: as §1

CLK3 = biological target: T34, CLK3 (Homo sapiens, UniProt P49761)
T34 construct: purchased Ambit (KinomeScan screening service)
Experimental: as §1

IGF1R = biological target: T35, IGF1R (Homo sapiens, UniProt P08069)
T35 construct: Ambit (KinomeScan screening)
Experimental: as §1

NEK2 = biological target: T36, NEK2 (Homo sapiens, UniProt P51955)
T36 construct: unspecified tag; purchased Ambit (KinomeScan screening panel)
Experimental: as §1

T12 sequence (P42336 whole entry): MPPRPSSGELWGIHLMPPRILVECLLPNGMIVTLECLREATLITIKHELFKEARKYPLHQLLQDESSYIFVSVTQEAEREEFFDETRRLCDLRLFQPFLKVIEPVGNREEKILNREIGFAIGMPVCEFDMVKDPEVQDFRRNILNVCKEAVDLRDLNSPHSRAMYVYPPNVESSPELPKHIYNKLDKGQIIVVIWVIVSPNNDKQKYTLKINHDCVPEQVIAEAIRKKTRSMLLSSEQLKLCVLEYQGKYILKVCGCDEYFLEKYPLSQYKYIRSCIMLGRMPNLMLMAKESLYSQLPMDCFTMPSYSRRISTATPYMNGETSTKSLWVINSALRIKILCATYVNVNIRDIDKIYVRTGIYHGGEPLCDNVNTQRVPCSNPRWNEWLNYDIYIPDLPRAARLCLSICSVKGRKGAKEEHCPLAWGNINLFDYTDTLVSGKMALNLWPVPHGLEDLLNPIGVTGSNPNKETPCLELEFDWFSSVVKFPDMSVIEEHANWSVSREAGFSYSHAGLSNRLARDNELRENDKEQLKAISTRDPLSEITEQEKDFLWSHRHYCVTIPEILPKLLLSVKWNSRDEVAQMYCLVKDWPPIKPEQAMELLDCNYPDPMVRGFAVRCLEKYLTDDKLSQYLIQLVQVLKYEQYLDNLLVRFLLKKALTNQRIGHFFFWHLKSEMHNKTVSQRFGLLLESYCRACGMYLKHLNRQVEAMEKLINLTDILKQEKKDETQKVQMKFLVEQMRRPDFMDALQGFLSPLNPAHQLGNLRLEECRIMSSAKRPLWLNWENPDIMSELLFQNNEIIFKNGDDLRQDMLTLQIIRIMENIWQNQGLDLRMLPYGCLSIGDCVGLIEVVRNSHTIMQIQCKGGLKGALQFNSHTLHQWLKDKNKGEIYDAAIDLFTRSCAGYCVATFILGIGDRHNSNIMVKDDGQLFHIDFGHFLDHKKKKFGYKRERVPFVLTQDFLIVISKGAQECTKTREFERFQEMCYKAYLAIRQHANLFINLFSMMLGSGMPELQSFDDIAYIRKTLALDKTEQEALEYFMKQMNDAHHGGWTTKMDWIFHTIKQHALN
T23 sequence (P30291 whole entry): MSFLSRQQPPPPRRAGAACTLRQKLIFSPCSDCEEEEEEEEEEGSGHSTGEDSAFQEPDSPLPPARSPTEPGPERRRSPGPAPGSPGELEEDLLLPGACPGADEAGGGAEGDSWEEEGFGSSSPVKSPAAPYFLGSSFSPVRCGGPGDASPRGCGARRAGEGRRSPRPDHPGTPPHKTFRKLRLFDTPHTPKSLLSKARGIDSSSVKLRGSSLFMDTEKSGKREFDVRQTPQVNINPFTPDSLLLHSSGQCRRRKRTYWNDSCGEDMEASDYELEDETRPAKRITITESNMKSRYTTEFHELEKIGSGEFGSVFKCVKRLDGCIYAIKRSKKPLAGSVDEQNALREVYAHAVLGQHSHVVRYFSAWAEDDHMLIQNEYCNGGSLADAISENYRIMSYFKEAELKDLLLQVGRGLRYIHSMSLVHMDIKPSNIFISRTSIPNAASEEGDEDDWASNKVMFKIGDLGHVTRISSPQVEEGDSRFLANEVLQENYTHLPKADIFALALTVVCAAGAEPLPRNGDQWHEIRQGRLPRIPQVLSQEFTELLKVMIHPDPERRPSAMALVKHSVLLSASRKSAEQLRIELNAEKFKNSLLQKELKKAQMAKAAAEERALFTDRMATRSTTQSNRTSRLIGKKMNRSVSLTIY
T19 sequence (Q9H4B4 whole entry): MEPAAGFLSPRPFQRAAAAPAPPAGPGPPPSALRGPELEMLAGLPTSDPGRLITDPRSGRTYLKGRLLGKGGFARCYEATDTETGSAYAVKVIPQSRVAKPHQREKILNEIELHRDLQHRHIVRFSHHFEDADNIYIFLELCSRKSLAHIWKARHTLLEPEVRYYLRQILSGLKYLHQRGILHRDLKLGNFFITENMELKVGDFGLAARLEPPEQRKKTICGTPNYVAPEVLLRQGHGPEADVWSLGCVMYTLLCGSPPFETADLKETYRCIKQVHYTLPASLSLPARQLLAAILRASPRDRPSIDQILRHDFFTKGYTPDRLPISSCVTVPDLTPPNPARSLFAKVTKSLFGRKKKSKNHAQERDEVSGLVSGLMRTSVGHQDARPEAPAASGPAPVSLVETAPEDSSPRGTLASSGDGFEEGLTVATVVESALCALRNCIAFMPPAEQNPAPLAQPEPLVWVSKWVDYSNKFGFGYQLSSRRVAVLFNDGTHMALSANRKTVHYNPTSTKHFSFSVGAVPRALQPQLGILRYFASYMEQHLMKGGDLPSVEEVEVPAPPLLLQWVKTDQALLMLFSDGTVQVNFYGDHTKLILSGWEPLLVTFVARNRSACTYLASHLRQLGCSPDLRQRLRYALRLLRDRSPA
T6 sequence (P51812 whole entry): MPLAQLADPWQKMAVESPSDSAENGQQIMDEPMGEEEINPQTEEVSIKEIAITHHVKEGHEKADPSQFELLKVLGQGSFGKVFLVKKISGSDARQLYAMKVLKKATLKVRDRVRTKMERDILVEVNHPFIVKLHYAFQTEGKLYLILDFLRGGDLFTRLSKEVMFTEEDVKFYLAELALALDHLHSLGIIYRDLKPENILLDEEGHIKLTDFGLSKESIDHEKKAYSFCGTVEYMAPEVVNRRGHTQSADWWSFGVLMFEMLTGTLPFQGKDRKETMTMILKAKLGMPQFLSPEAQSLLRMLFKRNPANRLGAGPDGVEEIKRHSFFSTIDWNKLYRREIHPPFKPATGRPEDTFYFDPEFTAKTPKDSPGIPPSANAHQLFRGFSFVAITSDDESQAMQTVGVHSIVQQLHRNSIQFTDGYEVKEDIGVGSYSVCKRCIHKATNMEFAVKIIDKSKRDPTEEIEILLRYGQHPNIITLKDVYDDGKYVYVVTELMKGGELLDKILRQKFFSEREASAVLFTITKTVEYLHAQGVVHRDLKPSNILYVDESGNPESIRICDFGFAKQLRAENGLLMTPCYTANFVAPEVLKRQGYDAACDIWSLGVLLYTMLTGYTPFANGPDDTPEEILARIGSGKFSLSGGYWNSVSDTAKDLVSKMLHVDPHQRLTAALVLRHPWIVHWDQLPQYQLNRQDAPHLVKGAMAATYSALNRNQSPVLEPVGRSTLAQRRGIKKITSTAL
T7 sequence (Q15375 28-998): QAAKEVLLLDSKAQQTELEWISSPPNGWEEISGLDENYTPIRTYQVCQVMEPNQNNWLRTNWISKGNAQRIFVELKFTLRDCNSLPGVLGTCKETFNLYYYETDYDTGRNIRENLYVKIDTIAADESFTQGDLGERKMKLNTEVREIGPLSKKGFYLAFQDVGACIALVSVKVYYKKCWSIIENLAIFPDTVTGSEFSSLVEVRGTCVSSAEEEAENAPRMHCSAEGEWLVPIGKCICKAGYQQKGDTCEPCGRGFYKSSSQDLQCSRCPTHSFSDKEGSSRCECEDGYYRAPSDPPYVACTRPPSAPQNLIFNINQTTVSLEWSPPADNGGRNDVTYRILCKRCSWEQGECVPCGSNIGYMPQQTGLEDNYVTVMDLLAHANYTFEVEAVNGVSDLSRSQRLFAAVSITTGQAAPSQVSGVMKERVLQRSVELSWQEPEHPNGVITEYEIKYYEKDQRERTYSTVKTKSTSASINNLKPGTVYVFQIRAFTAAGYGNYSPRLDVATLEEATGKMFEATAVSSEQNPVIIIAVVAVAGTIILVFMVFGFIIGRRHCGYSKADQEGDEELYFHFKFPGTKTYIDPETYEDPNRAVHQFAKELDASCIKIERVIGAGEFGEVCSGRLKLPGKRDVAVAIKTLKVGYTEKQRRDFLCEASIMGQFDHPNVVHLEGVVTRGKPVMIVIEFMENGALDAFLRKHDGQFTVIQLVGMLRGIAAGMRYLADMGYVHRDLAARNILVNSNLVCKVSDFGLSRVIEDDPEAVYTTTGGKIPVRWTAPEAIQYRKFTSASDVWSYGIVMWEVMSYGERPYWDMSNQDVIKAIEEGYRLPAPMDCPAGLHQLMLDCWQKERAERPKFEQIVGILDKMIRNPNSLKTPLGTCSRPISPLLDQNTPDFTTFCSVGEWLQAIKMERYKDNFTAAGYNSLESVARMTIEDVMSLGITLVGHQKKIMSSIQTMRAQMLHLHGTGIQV
T33 sequence (P53671 whole entry): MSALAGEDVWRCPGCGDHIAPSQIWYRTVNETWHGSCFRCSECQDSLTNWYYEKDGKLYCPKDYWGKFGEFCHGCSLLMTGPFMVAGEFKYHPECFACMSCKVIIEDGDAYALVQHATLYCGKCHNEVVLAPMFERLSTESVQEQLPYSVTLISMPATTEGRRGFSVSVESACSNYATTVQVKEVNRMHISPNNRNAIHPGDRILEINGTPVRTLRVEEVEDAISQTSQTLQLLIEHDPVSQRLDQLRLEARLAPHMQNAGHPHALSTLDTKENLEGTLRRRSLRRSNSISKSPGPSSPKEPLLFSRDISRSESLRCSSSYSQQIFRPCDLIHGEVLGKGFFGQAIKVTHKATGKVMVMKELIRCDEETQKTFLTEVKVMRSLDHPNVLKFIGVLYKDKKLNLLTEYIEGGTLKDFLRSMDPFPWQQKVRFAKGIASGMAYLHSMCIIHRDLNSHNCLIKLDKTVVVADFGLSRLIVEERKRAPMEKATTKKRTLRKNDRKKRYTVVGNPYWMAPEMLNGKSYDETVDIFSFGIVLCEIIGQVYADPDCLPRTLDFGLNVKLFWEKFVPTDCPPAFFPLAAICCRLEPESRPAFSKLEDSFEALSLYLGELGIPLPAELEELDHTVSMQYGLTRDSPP
T22 sequence (P0C264 whole entry): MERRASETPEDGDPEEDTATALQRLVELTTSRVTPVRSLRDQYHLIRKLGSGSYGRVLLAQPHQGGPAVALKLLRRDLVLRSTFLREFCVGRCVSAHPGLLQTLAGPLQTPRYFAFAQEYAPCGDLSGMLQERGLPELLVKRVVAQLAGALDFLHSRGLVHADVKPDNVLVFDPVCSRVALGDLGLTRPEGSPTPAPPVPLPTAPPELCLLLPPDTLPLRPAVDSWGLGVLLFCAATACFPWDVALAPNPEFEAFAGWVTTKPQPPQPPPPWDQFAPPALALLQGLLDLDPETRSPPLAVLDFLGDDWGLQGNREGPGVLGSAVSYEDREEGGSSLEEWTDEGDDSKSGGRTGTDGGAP

Question: Which results are given for Cc1ccccc1-n1c(C(C)Nc2nc(N)nc3nc[nH]c23)nc2cccc(C)c2c1=O (stereo not shown) [CAL-130]?
Answer: Percent of Control Binding (ERBB2): 100%; Percent of Control Binding (RET(V804M)): 100%; Percent of Control Binding (BIKE): 100%; Percent of Control Binding (ABL1(Q252H)): 100%; Percent of Control Binding (CSNK1G3): 100%; Percent of Control Binding (RPS6KA3): 100%; Percent of Control Binding (EPHA7): 100%; Percent of Control Binding (NIM1): 100%; Percent of Control Binding (TAO1): 100%; Percent of Control Binding (SRPK3): 100%; Percent of Control Binding (RPS6KA1): 100%; Percent of Control Binding (PIK3CA; PI3KCA (Table 2)): 12%; Percent of Control Binding (PIK3CA; PIK3CA (Table 1)): 12%; Percent of Control Binding (RAF1): 100%; Percent of Control Binding (EPHA6): 100%; Percent of Control Binding (ABL1(Y253F)): 100%; Percent of Control Binding (CDKL2): 100%; Percent of Control Binding (BMX): 100%; Percent of Control Binding (NEK5): 100%; Percent of Control Binding (PLK3): 100%; Percent of Control Binding (RET(V804L)): 100%; Percent of Control Binding (FAK): 100%; Percent of Control Binding (SgK110): 100%; Percent of Control Binding (WEE1): 100%; Percent of Control Binding (TGFBR1): 100%; Percent of Control Binding (PRKX): 100%; Percent of Control Binding (ERK2): 100%; Percent of Control Binding (NEK6): 100%; Percent of Control Binding (ULK3): 100%; Percent of Control Binding (BMPR1B): 100%; Percent of Control Binding (MST3): 100%; Percent of Control Binding (p38-α): 100%; Percent of Control Binding (CAMK1G): 100%; Percent of Control Binding (LIMK2): 100%; Percent of Control Binding (CLK3): 100%; Percent of Control Binding (IGF1R): 100%; Percent of Control Binding (NEK2): 100%

Reference: patent US11969428B2, “Methods and pharmaceutical compositions for treating lymphoid malignancy” (priority 2011, dated 2024)
